Experimental data reported in patent publication US9399626B2, “2-thiopyrimidinones” (Pfizer Inc., priority 2011, dated 2016).
Where a name gives a salt, the structure may show the parent alone.

These compounds were tested against T1, MPO (purified from human polynuclear leukocytes) (Homo sapiens, UniProt P05164) (assay: MPO Amplex Red Activity Assay). Conditions: Table 1, 2 μM H2O2, pH 7.4.
T1 construct: purified from human polynuclear leukocytes; purchased Calbiochem/EMD Biosciences; host or cells: human polynuclear leukocytes (natural source)
T1 sequence (P05164 279-745 limits assumed): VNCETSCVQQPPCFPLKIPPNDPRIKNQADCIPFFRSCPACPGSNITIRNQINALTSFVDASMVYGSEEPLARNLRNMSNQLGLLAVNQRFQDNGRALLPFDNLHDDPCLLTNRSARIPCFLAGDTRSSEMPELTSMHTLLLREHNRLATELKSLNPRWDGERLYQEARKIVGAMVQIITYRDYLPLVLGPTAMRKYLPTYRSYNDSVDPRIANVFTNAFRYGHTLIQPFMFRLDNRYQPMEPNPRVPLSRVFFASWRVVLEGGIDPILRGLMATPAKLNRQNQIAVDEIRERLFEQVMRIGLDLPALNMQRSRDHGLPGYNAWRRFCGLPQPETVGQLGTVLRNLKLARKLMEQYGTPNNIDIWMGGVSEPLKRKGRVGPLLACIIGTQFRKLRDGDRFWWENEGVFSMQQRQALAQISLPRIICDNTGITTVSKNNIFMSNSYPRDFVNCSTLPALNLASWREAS
T1 sequence (P05164 165-273 limits assumed): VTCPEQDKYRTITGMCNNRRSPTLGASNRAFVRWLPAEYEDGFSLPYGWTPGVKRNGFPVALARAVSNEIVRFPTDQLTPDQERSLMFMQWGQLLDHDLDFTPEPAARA
Type: biochemical
Method in brief: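 Potency is given as kinact/KI: kobs values from 600 s progress curves, minus the uninhibited rate, are fit against inhibitor concentration. Reactions use 2 μM H2O2, 30 μM Amplex Red, pH 7.4 phosphate buffer with NaCl, DTPA and 2% DMSO, started with […] human MPO. Readout is resorufin fluorescence, catalase background subtracted.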

| SMILES | MPO kinact/Ki |
| --- | --- |
| NCCCn1c(-c2ccccc2OCCO)cc(=O)[nH]c1=S [Example 88, 1-(3-aminopropyl)-6-[2-(2-hydroxyethoxy)phenyl]-2-thioxo-2,3-dihydropyrimidin-4(1H)-one hydrochloride] | 898 1/s per M |
| COc1nc2ccccc2cc1-c1cc(=O)[nH]c(=S)n1CCN [Example 97, 1-(2-aminoethyl)-6-(2-methoxyquinolin-3-yl)-2-thioxo-2,3-dihydropyrimidin-4(1H)-one trifluoroacetate] | 6310 1/s per M |
| COc1ncc(Cl)cc1-c1cc(=O)[nH]c(=S)n1CCCN [Example 93, 1-(3-aminopropyl)-6-(5-chloro-2-methoxypyridin-3-yl)-2-thioxo-2,3-dihydropyrimidin-4(1H)-one hydrochloride] | 5120 1/s per M |
| COCCn1c(-c2ccc3ccccc3c2)cc(=O)[nH]c1=S [Example 276, 1-(2-methoxyethyl)-6-(2-naphthyl)-2-thioxo-2,3-dihydropyrimidin-4(1H)-one] | 6710 1/s per M |
| COCCn1c(-c2cc3ccccc3cc2OC)cc(=O)[nH]c1=S [Example 117, 1-(2-methoxyethyl)-6-(3-methoxy-2-naphthyl)-2-thioxo-2,3-dihydropyrimidin-4(1H)-one] | 11400 1/s per M |
| COCCn1c(-c2ccc(C)nc2OC)cc(=O)[nH]c1=S [Example 50, 1-(2-methoxyethyl)-6-(2-methoxy-6-methylpyridin-3-yl)-2-thioxo-2,3-dihydropyrimidin-4(1H)-one] | 2610 1/s per M |
| COc1ccc(-c2cc(=O)[nH]c(=S)n2Cc2cnc(C)cn2)c(OC)c1 [Example 247, 6-(2,4-dimethoxyphenyl)-1-[(5-methylpyrazin-2-yl)methyl]-2-thioxo-2,3-dihydropyrimidin-4(1H)-one] | 3060 1/s per M |
| COc1ccc(OC)c(-c2cc(=O)[nH]c(=S)n2CCN)c1 [Example 166, 1-(2-aminoethyl)-6-(2,5-dimethoxyphenyl)-2-thioxo-2,3-dihydropyrimidin-4(1H)-one hydrochloride] | 8920 1/s per M |
| COc1ccc(-c2cc(=O)[nH]c(=S)n2CC2CCNC2)c(OC)c1 (stereo not shown) [Example 212, 6-(2,4-dimethoxyphenyl)-1-(pyrrolidin-3-ylmethyl)-2-thioxo-2,3-dihydropyrimidin-4(1H)-one hydrochloride] | 7590 1/s per M |
| COCCn1c(-c2cc(C(C)C)c(F)cc2OC)cc(=O)[nH]c1=S [Example 344, 6-(4-fluoro-5-isopropyl-2-methoxyphenyl)-1-(2-methoxyethyl)-2-thioxo-2,3-dihydropyrimidin-4(1H)-one] | 8480 1/s per M |
| COc1ncc(Cl)cc1-c1cc(=O)[nH]c(=S)n1CCO [Example 65, 6-(5-chloro-2-methoxypyridin-3-yl)-1-(2-hydroxyethyl)-2-thioxo-2,3-dihydropyrimidin-4(1H)-one] | 7940 1/s per M |
| COCCn1c(-c2ccc(OC)c(OC)c2OC)cc(=O)[nH]c1=S [Example 343, 1-(2-methoxyethyl)-2-thioxo-6-(2,3,4-trimethoxyphenyl)-2,3-dihydropyrimidin-4(1H)-one] | 3570 1/s per M |
| COc1cccc(-c2cc(=O)[nH]c(=S)n2CCN)c1 [Example 264, 1-(2-aminoethyl)-6-(3-methoxyphenyl)-2-thioxo-2,3-dihydropyrimidin-4(1H)-one hydrochloride] | 3620 1/s per M |
| COc1ccc(-c2cc(=O)[nH]c(=S)n2C[C@@H]2CCCN2)c(OC)c1 [Example 268, 6-(2,4-dimethoxyphenyl)-1-[(2S)-pyrrolidin-2-ylmethyl]-2-thioxo-2,3-dihydropyrimidin-4(1H)-one hydrochloride hydrochloride hydrochloride, hydrochloride hydrochloride …] | 6640 1/s per M |
| COCCn1c(-c2cccc3[nH]ccc23)cc(=O)[nH]c1=S [Example 304, 6-(1H-indol-4-yl)-1-(2-methoxyethyl)-2-thioxo-2,3-dihydropyrimidin-4(1H)-one] | 6290 1/s per M |
| COc1ccc(-c2cc(=O)[nH]c(=S)n2CCCN)cc1OC [Example 82, 1-(3-aminopropyl)-6-(3,4-dimethoxyphenyl)-2-thioxo-2,3-dihydropyrimidin-4(1H)-one hydrochloride] | 3390 1/s per M |
| O=c1cc(-c2cccc3ccccc23)n(CCO)c(=S)[nH]1 [Example 162, 1-(2-hydroxyethyl)-6-(1-naphthyl)-2-thioxo-2,3-dihydropyrimidin-4(1H)-one] | 8950 1/s per M |
| O=c1cc(-c2cccc3ncsc23)n(CCO)c(=S)[nH]1 [Example 42, 6-(1,3-benzothiazol-7-yl)-1-(2-hydroxyethyl)-2-thioxo-2,3-dihydropyrimidin-4(1H)-one] | 6070 1/s per M |
| COCCn1c(-c2cccs2)cc(=O)[nH]c1=S [Example 282, 1-(2-methoxyethyl)-6-(2-thienyl)-2-thioxo-2,3-dihydropyrimidin-4(1H)-one] | 1180 1/s per M |
| COc1ccc(-c2cc(=O)[nH]c(=S)n2CCCCCN)c(OC)c1 [Example 218, 1-(5-aminopentyl)-6-(2,4-dimethoxyphenyl)-2-thioxo-2,3-dihydropyrimidin-4(1H)-one hydrochloride] | 14100 1/s per M |
| COCCn1c(-c2c(OC)ccc3ccccc23)cc(=O)[nH]c1=S [Example 339, 1-(2-methoxyethyl)-6-(2-methoxy-1-naphthyl)-2-thioxo-2,3-dihydropyrimidin-4(1H)-one] | 10400 1/s per M |
| COCCn1c(-c2ccccc2SC)cc(=O)[nH]c1=S [Example 55, 1-(2-methoxyethyl)-6-[2-(methylthio)phenyl]-2-thioxo-2,3-dihydropyrimidin-4(1H)-one] | 7740 1/s per M |
| COCCn1c(-c2ccccc2F)cc(=O)[nH]c1=S [Example 158, 6-(2-fluorophenyl)-1-(2-methoxyethyl)-2-thioxo-2,3-dihydropyrimidin-4(1H)-one] | 1750 1/s per M |
| COCCn1c(-c2cc(C(C)C)ccc2OC)cc(=O)[nH]c1=S [Example 337, 6-(5-isopropyl-2-methoxyphenyl)-1-(2-methoxyethyl)-2-thioxo-2,3-dihydropyrimidin-4(1H)-one] | 13200 1/s per M |
| COCCn1c(-c2cnc(N(C)C)nc2)cc(=O)[nH]c1=S [Example 314, 2′-(dimethylamino)-3-(2-methoxyethyl)-2-thioxo-2,3-dihydro-4,5′-bipyrimidin-6(1H)-one] | 429 1/s per M |
| COCCn1c(-c2cccc3cccnc23)cc(=O)[nH]c1=S [Example 322, 1-(2-methoxyethyl)-6-quinolin-8-yl-2-thioxo-2,3-dihydropyrimidin-4(1H)-one] | 2800 1/s per M |
| COCCn1c(-c2ccc(C)cc2)cc(=O)[nH]c1=S [Example 285, 1-(2-methoxyethyl)-6-(4-methylphenyl)-2-thioxo-2,3-dihydropyrimidin-4(1H)-one] | 1750 1/s per M |
| CCOc1ccc(-c2cc(=O)[nH]c(=S)n2CCOC)cc1 [Example 311, 6-(4-ethoxyphenyl)-1-(2-methoxyethyl)-2-thioxo-2,3-dihydropyrimidin-4(1H)-one] | 2080 1/s per M |
| COc1ccc(C)nc1-c1cc(=O)[nH]c(=S)n1CCO [Example 22, 1-(2-hydroxyethyl)-6-(3-methoxy-6-methylpyridin-2-yl)-2-thioxo-2,3-dihydropyrimidin-4(1H)-one] | 6340 1/s per M |
| COCCn1c(-c2ccc(OC)cc2)cc(=O)[nH]c1=S [Example 294, 1-(2-methoxyethyl)-6-(4-methoxyphenyl)-2-thioxo-2,3-dihydropyrimidin-4(1H)-one] | 1910 1/s per M |

Same assay, conditions: Table 1A, 2 μM H2O2, pH 7.4

| SMILES | MPO kinact/Ki |
| --- | --- |
| COc1ccc(-c2cc(=O)[nH]c(=S)n2CC(=O)N[C@H](C)[C@@H](C)N)c(OC)c1 [Example 433, N-[(2R,3R)-3-aminobutan-2-yl]-2-[6-(2,4-dimethoxyphenyl)-4-oxo-2-thioxo-3,4-dihydropyrimidin-1(2H)-yl]acetamide] | 3490 1/s per M |
| O=c1cc(-c2ccc3c(c2)OCCO3)n(CCO)c(=S)[nH]1 [Example 356, 6-(2,3-dihydro-1,4-benzodioxin-6-yl)-1-(2-hydroxyethyl)-2-thioxo-2,3-dihydropyrimidin-4(1H)-one] | 2910 1/s per M |
| COc1ccc(-c2cc(=O)[nH]c(=S)n2CCCNC(=N)N)c(OCCO)c1 [Example 403, 1-(3-{6-[2-(2-hydroxyethoxy)-4-methoxyphenyl]-4-oxo-2-thioxo-3,4-dihydropyrimidin-1(2H)-yl}propyl)guanidine] | 13300 1/s per M |
| NCCNC(=O)Cn1c(-c2cc(Cl)ccc2OCCO)cc(=O)[nH]c1=S [Example 424, N-(2-aminoethyl)-2-{6-[5-chloro-2-(2-hydroxyethoxy)phenyl]-4-oxo-2-thioxo-3,4-dihydropyrimidin-1(2H)-yl}acetamide] | 6870 1/s per M |
| COc1ccc(OCCO)cc1-c1cc(=O)[nH]c(=S)n1CC(N)=O [Example 422, 2-{6-[5-(2-hydroxyethoxy)-2-methoxyphenyl]-4-oxo-2-thioxo-3,4-dihydropyrimidin-1(2H)-yl}acetamide] | 4460 1/s per M |
| NC(=O)Cn1c(-c2cccc3ncccc23)cc(=O)[nH]c1=S [Example 367, 2-[4-oxo-6-(quinolin-5-yl)-2-thioxo-3,4-dihydropyrimidin-1(2H)-yl]acetamide] | 1340 1/s per M |
| COc1ccc(-c2cc(=O)[nH]c(=S)n2CC(=O)NC[C@H](C)N)c(OC)c1 [Example 396, N-[(2S)-2-aminopropyl]-2-[6-(2,4-dimethoxyphenyl)-4-oxo-2-thioxo-3,4-dihydropyrimidin-1(2H)-yl]acetamide] | 10900 1/s per M |
